Test results as given in US8658672B2, “HIF-1α activating agent” (University of Seoul Foundation of Industrial and Academic …, priority 2006, dated 2014).
Where two headings read alike, the source gives them in different places.

Legend:
[1] = tested on: CAM (choriallantoic membrane); settings: CAM assay; for angiogenesis: filter paper with 10 or 50 μM solution 10 μl, three days
Description: Particularly, the fertilized egg was incubated in a 37° C. 55% humid incubator. 10 days later, the egg albumin was removed by using a 2 ml hypodermic syringe in order to separate CAM and yolk sac from the shell membrane. On 10.5th day, the egg shell was removed (1 cm^2). […] Three days later, 1-2 ml of 10% fat emulsion was injected into chorioallantoic membrane, followed by observation under a microscope.

[2] = tested on: VEGF; settings: 50 μM; cell line not clearly stated (SH-SY5Y implied)
Description: Total RNA was extracted by using RNase Spin column (Qiagen, USA). cDNA was synthesized from 1 μg of the extracted RNA using AMV reverse transcriptase (Promega, USA) and random hexamer (Gibco-BRL, USA). RT-PCR was performed using the synthesized cDNA as a template with a VEGF forward primer represented by SEQ. […] NO: 1 (5′-[sequence]-3′) and a VEGF reverse primer represented by SEQ. […] NO: 2 (5′-[sequence]-3′). RT-PCR conditions were as follows; predenaturation at 95° C. for 5 minutes, denaturation at 95° C. for 45 seconds, annealing at 56° C. for 45 seconds, polymerization at 72° C. for 60 seconds, 30 cycles from denaturation to polymerization. For the control, RT-PCR was performed again with an 18S forward primer represented by SEQ. […] NO: 3 (5′-[sequence]-3′) and an 18S reverse primer represented by SEQ. […] NO: 4 (5′-[sequence]-3′). RT-PCR conditions were as follows; predenaturation at 95° C. for 5 minutes, denaturation at 95° C. for 45 seconds, annealing at 56° C. for 45 seconds, polymerization at 72° C. for 60 seconds, 30 cycles from denaturation to polymerization.

[3] = tested on: GAL4-HIF-1α; test: HIF-1α transactivation, Gal4-driven reporter gene assay in HepG2 cells; assay type: cell-based, human; settings: normoxic condition, CQ 10, 50 μM, TPEN 5 μM, 16 hours
Description: Human HepG2 hepatoma cells were cultured at the concentration of 5×10^4, which were transfected with 100 ng of Gal-4-driven reporter plasmid encoding the firefly luciferase gene under the control of the Gal4 binding site together with pGal4/HIF-1α plasmid which expresses HIF-1α linked to the DNA binding domain of the yeast Gal4 protein (amino acids 1-147). The transfected human HepG2 hepatoma cells were incubated in both normoxic and hypoxic conditions and then treated with CQ (10, 50 μM) for 16 hours in normoxic condition. 48 hours after the transfection, luciferase activities were analyzed using the reporter gene assay system (Promega, USA) and normalized by β-galactosidase activities.

[4] = tested on: patients with Alzheimer's disease; settings: phase II clinical trial; cited from earlier work
[5] = tested on: HRE (hypoxia-response element); test: HRE dependent gene expression in HepG2 hepatoma cells (luciferase reporter gene assay); assay type: cell-based, human; settings: p(HRE)4-luc, TPEN 5, 10 μM, CQ 10, 50 μM, 16 hours
Description: Human HepG2 hepatoma cells were grown to the density of 5×10^4 and then transfected with 100 ng of HRE-driven reporter plasmid, p(HRE)4-luc together with plasmid pCHO110 which encodes β-galactosidase. The transfected human HepG2 hepatoma cells were cultured under normoxic condition and hypoxic condition and then treated with TPEN (5, 10 μM) and CQ (10, 50 μM) for 16 hours each. 48 hours after the transfection, luciferase activities were analyzed using the reporter gene assay system (Promega, USA) and normalized by β-galactosidase activities.

[6] = tested on: APP2576 transgenic mice; settings: cited from earlier work
[7] = biological target: T1, FIH-1 (Homo sapiens, UniProt Q9NWT6); settings: F-HIF-1α peptide 4 μM, recombinant FIH-1, MALDI-TOF
T1 sequence (Q9NWT6 whole entry): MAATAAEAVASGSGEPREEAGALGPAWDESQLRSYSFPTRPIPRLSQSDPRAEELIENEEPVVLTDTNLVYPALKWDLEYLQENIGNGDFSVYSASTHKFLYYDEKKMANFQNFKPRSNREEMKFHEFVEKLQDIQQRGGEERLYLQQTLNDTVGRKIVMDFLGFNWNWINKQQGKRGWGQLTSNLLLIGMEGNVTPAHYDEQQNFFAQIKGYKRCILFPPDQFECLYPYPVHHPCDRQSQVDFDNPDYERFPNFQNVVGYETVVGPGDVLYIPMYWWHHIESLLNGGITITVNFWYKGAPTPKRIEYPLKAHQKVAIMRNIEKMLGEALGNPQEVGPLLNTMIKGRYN
Description: The present inventors examined FIH-1 activity by measuring the asparagine hydroxylation of F-HIF-1α peptide. The peptide hydroxylation was measured by mass spectrophotometry.
Particularly, F-HIF-1α (788-822 amino acids: FITC-aca-[sequence]) containing fluorescein and aca (aminocaproic acid) linker (AnyGen, KwangJu, Korea) at N-terminal was reacted with FIH-1 protein. The F-HIF-1α peptide was incubated at a final concentration of 4 μM with 2.8 μg of recombinant FIH-1 in reaction solution [20 mM Tris buffer (pH 7.5), 5 mM KCl, 1.5 mM MgCl2, 100 μM α-ketoglutarate and 400 μM ascorbic acid: final volume 50 μl]. After incubation with agitation for 2 hours at room temperature, excess salts were removed with ZipTipC18 (Millipore, USA). The F-HIF-1α peptide was eluted from the tip with a-cyano-4-hydroxycinnamic acid in acetonitrile/water (50:50 v/v) containing 0.1% TFA followed by washing with distilled water containing 0.1% TFA. The eluted peptide solution was transferred to a MALDI sample plate and MALDI-TOF measurements were performed with a Voyager analyzer (Applied Biosystems, USA).

[8] = in vivo; cited from earlier work
[9] = tested on: VEGF; test: Effects of CQ and TPEN on the expression of VEGF, a HIF-1α target gene (RT-PCR); assay type: cell-based, human; settings: TPEN 5 μM
Excerpt: ID. […] ID. NO: 2 (5′-[…]-3′). […] ID. […] ID. NO: 4 (5′-[…]-3′).

[10] = cited from earlier work
[11] = tested on: EPO; settings: normoxic condition, CQ 10, 50 μM, 16 hours; HepG2 and SH-SY5Y cells
Description: (§1) Total RNA was extracted by using RNase Spin column (Qiagen, USA). VEGF expression was investigated by Northern blot analysis. Northern blot hybridization was performed using ^32P-labeled VEGF cDNA probe and ^32P-labeled EPO cDNA probe. The Northern blotting was performed by the conventional method well known to those in the art (Sambrook et al., Molecular cloning, 1989).

[12] = tested on: VEGF; settings: normoxic condition, CQ 10, 50 μM, 16 hours; HepG2 and SH-SY5Y cells
Description: as §1

[13] = tested on: human cancer cell lines; settings: several human cancer cell lines; cited from earlier work
[14] = used as an antibiotic in the mid-1900s, Japan; cited from earlier work
[15] = biological target: T1, FIH-1; test: In vitro FIH-1 activity (capture of radio-labeled HIF-1α by GST-CBP); assay type: biochemical; parameters: histidine tag; made in house; host or cells: E. coli
Description: The human FIH-1 gene (AF395830) was cloned into pET28a vector (Novagen, USA) and FIH-1 was overexpressed in E. coli as a histidine-tagged fusion protein and purified by Ni-affinity chromatography. The fusion protein was purified by gel-filtration chromatography (Hi-Load Superdex 200) and concentrated by ultrafiltration (Choi et al., Mol Pharmacol 68:1803-1809, 2005).
The resin-bound GST-CBP N-domain (amino acids 1-450) (Kamei et al., Cell 85:403-414, 1996) was then added to 1 μg of each mixture in 500 μl of binding buffer (200 mM Tris-HCl (pH 8.0), 150 mM NaCl, 20 μM ZnCl2, 0.5 mM DTT) and incubation continued for one hour at 4° C. Glutathione-uniflow resin bound protein was washed four times with 1 ml of 0.1% Nondiet P-40 containing binding buffer, and visualized by SDS-PAGE by eluting using SDS sample buffer (Dann et al., Proc Natl Acad Sci USA 99:15351-15356, 2002). The present inventors substituted the asparagine-803 residue of HIF-1α with alanine to generate HIF-1α mutant [HIF-1α-C(N803A)], followed by investigation on FIH-1 activity by the same manner as described above.
Radio-labeled HIF-1α was reacted with the purified recombinant FIH-1, in the presence or absence of CQ or TPEN. FIH-1 was expected to […] the asparagine-803 residue of HIF-1α and thus inhibit the interaction with CBP binding to HIF-1α transactivation domain (Mahon, P. C. et al., Genes Dev. 15, 2675-2686, 2001; Dannm C. E. R., et al., Proc. Natl. Acad. Sci. USA 99, 15351-15356, 2002; Lando, D., et al., Science 295, 858-861, 2002; Freedman, S. J. et al., Proc. Natl. Acad. Sci. USA 99, 5367-5372, 2002).

[16] = 10 μM solution 10 μl (lower amount, 30.3-39.7 ng)
[17] = 50 μM solution 10 μl (higher amount, 151.5-198.5 ng)

Oc1c(I)cc(I)c2cccnc12 [B, 5,7-diiodo-8-hydroxyquinoline]
Angiogenesis/total (No.) [1, 16]: 5/7
Angiogenesis/total (No.) [1, 17]: 4/6
angiogenesis [1]: promote angiogenesis

Oc1c(Br)cc(Br)c2cccnc12 [C, 5,7-dibromo-8-hydroxyquinoline]
Angiogenesis/total (No.) [1, 16]: 4/6
Angiogenesis/total (No.) [1, 17]: 3/5
angiogenesis [1]: promote angiogenesis
VEGF expression, % to the expression level induced by CQ [2]: 60-70%

Oc1c(I)cc(Cl)c2cccnc12 [CQ, 5-chloro-7-iodo-8-quinolinol]
transactivation activity of HIF-1α [3]: increased transactivation activity of HIF-1α
cognitive decline [4]: slowed cognitive decline
plasma amyloid beta concentrations [4]: decreased plasma amyloid beta concentrations
HIF-1α dependent hypoxia-response element (HRE) activity [5]: induced HIF-1α dependent hypoxia-response element (HRE) activity
amyloid beta plaques and serum levels of amyloid beta [6]: reduced both amyloid beta plaques and serum levels of amyloid beta
systemic adverse effects [6]: without systemic adverse effects
asparagine-hydroxylating activity of FIH-1 [7]: inhibits the asparagine-hydroxylating activity of FIH-1
crossing of the blood-brain barrier [8]: able to cross the blood-brain barrier
VEGF expression ([9]; HepG2 cells, normoxic, CQ 10, 100 μM): differed in their effects on VEGF expression
VEGF expression ([9]; SH-SY5Y cells, normoxic condition, CQ 10, 100 μM): increased VEGF expression
VEGF expression ([9]; hypoxic condition, 16 hours, CQ 100 μM, SH-SY5Y and HepG2 cells): none of the control, TPEN and CQ increased VEGF expression
Angiogenesis/total (No.) [1, 16]: 8/12
Angiogenesis/total (No.) [1, 17]: 8/12
angiogenesis [1]: promote angiogenesis
pKa value, Ca2+ ([10]; Ca^2+): 8.1
pKa value, Cu2+ ([10]; Cu^2+): 15.8
pKa value, Mg2+ ([10]; Mg^2+): 8.6
pKa value, Zn2+ ([10]; Zn^2+): 12.5
expression of EPO [11]: increased expressions of VEGF and EPO
expression of VEGF [12]: increased expressions of VEGF and EPO
apoptotic cell death [13]: causes apoptotic cell death
adverse effect in people [14]: caused subacute myelo-optic neuropathy
FIH-1 activity ([15]; CQ 10 μM and 50 μM, interaction between HIF-1α and CBP as readout): FIH-1 activity was reduced
interaction between CBP and HIF-1α-C(N803A) mutant ([15]; HIF-1α-C(N803A) mutant, presence or absence of CQ or FIH-1): did not change the interaction between CBP and HIF-1α-C (N803A)
effect of Cu(II) on the inhibition of FIH-1 activity by CQ ([15]; co-treatment with Cu(II)): failed to reverse the inhibitory effect of CQ
effect of Zn(II) on the inhibition of FIH-1 activity by CQ ([15]; co-treatment with Zn(II)): failed to reverse the inhibitory effect of CQ
